Consider nine compounds from PubChem BioAssay (NCI).

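All cell lines were grown in 96-well plates and treated with compound for 48 hours. At the TGI there is no net growth.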

Some test systems named below: CAKI-1 renal; CCRF-CEM leukemia; EKVX NSCLC; HCC-2998 colon; HCT-116 colon; HL-60(TB) leukemia; K-562 leukemia; KM12 colon; LOX IMVI melanoma; M14 melanoma; NCI-H460 lung; SF-295 CNS; SK-MEL-2 melanoma; SK-MEL-5 melanoma; SR leukemia; TK-10 renal; U251 CNS.
What all share (assay): NCI-60 cell line screen, 48 h

Turning to `CCCCCCCCCCCCn1[nH]c(C)c(C(=S)SCCCCCCCC)c1=O`, the TGI is over 100 µM in the assay on CAKI-1 renal; over 78.3 µM in the assay on CCRF-CEM leukemia; over 100 µM with EKVX NSCLC; over 100 µM in the assay on HCC-2998 colon; over 100 µM in the assay on HCT-116 colon; over 75.7 µM in the assay with HL-60(TB) leukemia. In addition, the TGI in the assay on K-562 leukemia, in the assay on KM12 colon, in the assay on LOX IMVI melanoma, in the assay with M14 melanoma, in the assay on NCI-H460 lung and in the assay on SF-295 CNS was over 100 µM throughout. Further, the TGI in the assay with SK-MEL-2 melanoma is over 100 µM; in the assay with SK-MEL-5 melanoma it was over 100 µM; in the assay with SR leukemia it was over 39.9 µM; in the assay with TK-10 renal, over 100 µM; in the assay on U251 CNS, over 100 µM.

As to `CCc1cccc(C(C)CC)c1NC(=O)C(=O)C(CC(=O)Nc1ccc(Cl)c(Cl)c1)C(=O)OC` (configuration not stated), the TGI in the assay on CAKI-1 renal, in the assay on CCRF-CEM leukemia, in the assay with EKVX NSCLC, in the assay with HCC-2998 colon, in the assay on HCT-116 colon and in the assay on HL-60(TB) leukemia was over 100 µM in each case. Also, the TGI in the assay on K-562 leukemia, in the assay with KM12 colon, in the assay with M14 melanoma, in the assay with NCI-H460 lung, with SF-295 CNS and in the assay with SK-MEL-2 melanoma was over 100 µM each time. Also, the TGI with SR leukemia, in the assay on TK-10 renal and in the assay on U251 CNS was over 100 µM throughout.

`COc1cc(C)c(C)c(OC(=O)c2c(C)c(C)c(OC)c(C)c2OC)c1C`: the TGI with CAKI-1 renal is 79.6 µM; in the assay on CCRF-CEM leukemia, 62 µM; in the assay on EKVX NSCLC, 98.3 µM; with HCC-2998 colon it was 53.1 µM; in the assay with HCT-116 colon, 39 µM; in the assay with HL-60(TB) leukemia, 32.6 µM. For the same compound, the TGI amounted to 44.7 µM in the assay with K-562 leukemia; 50.9 µM in the assay with KM12 colon; 20.9 µM with LOX IMVI melanoma; 33.9 µM with M14 melanoma; 20.4 µM in the assay with NCI-H460 lung; 38.6 µM in the assay with SF-295 CNS. In addition, the TGI was 24.8 µM in the assay with SK-MEL-2 melanoma; 22.7 µM in the assay with SK-MEL-5 melanoma; 22 µM in the assay on SR leukemia; over 100 µM in the assay with TK-10 renal; 21 µM in the assay on U251 CNS.

On to `CC(C(=O)c1ccc(Cl)cc1)C1OC(=O)C(Cl)=C1Cl` (configuration not stated), for which the TGI in the assay on CCRF-CEM leukemia is 41.4 µM; in the assay on EKVX NSCLC, over 100 µM; with HCC-2998 colon, 63.5 µM; in the assay on HL-60(TB) leukemia, 47.6 µM; in the assay on K-562 leukemia it was 58.8 µM; in the assay with KM12 colon it was over 100 µM. Further, the TGI is 47.3 µM with LOX IMVI melanoma; over 100 µM in the assay with M14 melanoma; over 100 µM in the assay on NCI-H460 lung; over 100 µM with SF-295 CNS; 48.9 µM in the assay with SK-MEL-2 melanoma; over 100 µM with SK-MEL-5 melanoma. Moreover, the TGI with TK-10 renal and in the assay with U251 CNS was over 100 µM each time.

Consider `Cc1cccc(C)c1NC(=O)CCC(=O)NC(N)=S`, for which the TGI in the assay on CAKI-1 renal, with CCRF-CEM leukemia, in the assay with EKVX NSCLC, with HCC-2998 colon, in the assay with HCT-116 colon and in the assay with HL-60(TB) leukemia was over 100 µM in each case. For the same compound, the TGI with K-562 leukemia, with KM12 colon, in the assay on LOX IMVI melanoma, with M14 melanoma, in the assay on NCI-H460 lung and in the assay with SF-295 CNS was over 100 µM each time. Further, the TGI with SK-MEL-5 melanoma, in the assay with SR leukemia, in the assay on TK-10 renal and in the assay on U251 CNS was over 100 µM each time.

For `Brc1ccc2c(c1)C1C(CO2)C(c2ccccc2)=NN1c1ccccc1` (configuration not stated), the TGI in the assay with CCRF-CEM leukemia, in the assay on EKVX NSCLC, with HCC-2998 colon, with HCT-116 colon, with HL-60(TB) leukemia and with K-562 leukemia was over 100 µM each time. For the same compound, the TGI with KM12 colon, with LOX IMVI melanoma, in the assay with NCI-H460 lung, with SF-295 CNS, in the assay with SK-MEL-2 melanoma and with TK-10 renal was over 100 µM each time. In the assay on U251 CNS, this compound gave a TGI of over 100 µM.

For `COC(=O)NC(=O)c1cn(CCCOC(=O)CCCCCCCCC(=O)OCCCn2cc(C(=O)NC(=O)OC)c(=O)[nH]c2=O)c(=O)[nH]c1=O`, the TGI with CAKI-1 renal, in the assay on CCRF-CEM leukemia, with EKVX NSCLC, in the assay on HCC-2998 colon, in the assay on HCT-116 colon and in the assay with HL-60(TB) leukemia was over 100 µM in each case. For the same compound, the TGI in the assay on K-562 leukemia, with KM12 colon, in the assay with LOX IMVI melanoma, in the assay with M14 melanoma, with NCI-H460 lung and with SF-295 CNS was over 100 µM throughout. Moreover, the TGI in the assay on SK-MEL-2 melanoma, with SK-MEL-5 melanoma, with SR leukemia and in the assay on TK-10 renal was over 100 µM in each case.

For `COC(=O)c1ccccc1NC(=O)C(=O)CC(=O)CC(c1ccccc1)c1c(O)c2ccccc2oc1=O` (configuration not stated), the TGI with CAKI-1 renal, with CCRF-CEM leukemia, with EKVX NSCLC, in the assay with HCC-2998 colon, with HCT-116 colon and with HL-60(TB) leukemia was over 100 µM throughout. The TGI with KM12 colon, with M14 melanoma, in the assay with NCI-H460 lung, with SF-295 CNS, in the assay on SK-MEL-2 melanoma and with SK-MEL-5 melanoma was over 100 µM each time. Further, the TGI in the assay on SR leukemia and with TK-10 renal was over 100 µM in each case.

On to `CSc1nc2c(c(O)c(C)c(=O)n2C2OCC(OC(C)=O)C(OC(C)=O)C2OC(C)=O)c(=O)n1C` (configuration not stated), for which the TGI with CAKI-1 renal, in the assay with CCRF-CEM leukemia, in the assay with HCT-116 colon, in the assay on HL-60(TB) leukemia, in the assay with K-562 leukemia and in the assay with KM12 colon was over 100 µM in each case. The TGI in the assay with LOX IMVI melanoma, with M14 melanoma, in the assay on NCI-H460 lung, with SF-295 CNS, with SK-MEL-2 melanoma and in the assay on SK-MEL-5 melanoma was over 100 µM in each case. Also, the TGI with SR leukemia, in the assay on TK-10 renal and in the assay on U251 CNS was over 100 µM in each case.
